Results on ten compounds are retold here after ChEMBL document CHEMBL2202954, “The effect of PLC-γ2 inhibitors on the growth of human tumour cells” (2012).

Type in all cases: functional
For one assay, the system named is M14. As to the kind of experiment: Cytotoxicity against human M14 cells assessed as cellular growth at 10 uM by SRB assay. Background: Sulforhodamine B stains cellular protein and so reports cell mass.
A further assay relates to NCI-H322M. The assay can be described thus: Cytotoxicity against human NCI-H322M cells assessed as cellular growth at 10 uM by SRB assay.
The test system of a further assay is SR. The assay can be described thus: Cytotoxicity against human SR cells assessed as cellular growth at 10 uM by SRB assay.
The next assay concerns OVCAR-5. As to the kind of experiment: Cytotoxicity against human OVCAR5 cells assessed as cellular growth at 10 uM by SRB assay.
Another assay concerns IGROV-1. As to the kind of experiment: Cytotoxicity against human IGROV1 cells assessed as cellular growth at 10 uM by SRB assay.
The next assay has as its system HL-60(TB). As to the kind of experiment: Cytotoxicity against human HL-60(TB) cells assessed as cellular growth at 10 uM by SRB assay.
For the next assay, the system named is RXF 393. As to the kind of experiment: Cytotoxicity against human RXF393 cells assessed as cellular growth at 10 uM by SRB assay.
In the next assay the test system is UO-31. As to the kind of experiment: Cytotoxicity against human UO31 cells assessed as cellular growth at 10 uM by SRB assay.
The next assay has as its system SK-OV-3. As to the kind of experiment: Cytotoxicity against human SKOV3 cells assessed as cellular growth at 10 uM by SRB assay.
The test system of the next assay is LOX IMVI. The assay can be described thus: Cytotoxicity against human LOXIMVI cells assessed as cellular growth at 10 uM by SRB assay.
For another assay, the system named is HCT-15. The assay can be described thus: Cytotoxicity against human HCT15 cells assessed as cellular growth at 10 uM by SRB assay.
The subject of another assay is HOP-62. The assay can be described thus: Cytotoxicity against human HOP62 cells assessed as cellular growth at 10 uM by SRB assay.
For another assay, the system named is OVCAR-4. As to the kind of experiment: Cytotoxicity against human OVCAR4 cells assessed as cellular growth at 10 uM by SRB assay.
The subject of another assay is SK-MEL-28. As to the kind of experiment: Cytotoxicity against human SK-MEL-28 cells assessed as cellular growth at 10 uM by SRB assay.
Assay [1] is described as follows: Cytotoxicity against human NCI-ADR-RES cells assessed as cellular growth at 10 uM by SRB assay.
The next assay deals with SF-268. The assay can be described thus: Cytotoxicity against human SF268 cells assessed as cellular growth at 10 uM by SRB assay.
A further assay concerns EKVX. The assay can be described thus: Cytotoxicity against human EKVX cells assessed as cellular growth at 10 uM by SRB assay.
The test system of a further assay is OVCAR-3. As to the kind of experiment: Cytotoxicity against human OVCAR3 cells assessed as cellular growth at 10 uM by SRB assay.
A further assay relates to MDA-MB-468. As to the kind of experiment: Cytotoxicity against human MDA-MB-468 cells assessed as cellular growth at 10 uM by SRB assay.

As to `Cc1ccc2c(c1)N/C(=C/C(=O)c1ccc(Cl)cc1)C(=O)O2`, the Activity amounted to 108.88% with M14; 114.58% in the assay on NCI-H322M; 110.86% in the assay with SR; 106.86% in the assay on OVCAR-5; 136.06% with IGROV-1; 97.02% with HL-60(TB). Besides, the Activity with RXF 393 was 111.43%; in the assay on UO-31, 94.15%; with SK-OV-3, 110.03%; with LOX IMVI it was 100.45%; in the assay on HCT-15, 99.12%; with HOP-62, 113.93%. The Activity stood at 88.88% in the assay on OVCAR-4; 116.13% in the assay on SK-MEL-28; 104% in assay [1]; 105.3% in the assay with SF-268; 106.62% in the assay with EKVX; 119.21% in the assay with OVCAR-3. The Activity with MDA-MB-468 stood at 107.35%.
Take `COc1ccc2[nH]c(C(=O)NCc3ccccc3)cc2c1`: the Activity with M14 stood at 104.15%; with NCI-H322M, 90.03%; with SR it was 91.93%; with OVCAR-5, 116.46%; in the assay with IGROV-1, 99.05%; in the assay on HL-60(TB), 95.91%. Besides, the Activity with RXF 393 amounted to 101.97%; in the assay with UO-31 it was 75.52%; with SK-OV-3, 108.16%; in the assay on LOX IMVI it was 103.84%; with HCT-15, 94.58%; in the assay with HOP-62, 104.71%. Besides, the Activity in the assay on OVCAR-4 turned out to be 93.84%; in the assay with SK-MEL-28, 110.55%; in assay [1] it was 102.25%; in the assay on SF-268 it was 114.89%; in the assay on EKVX, 78.14%; in the assay on OVCAR-3, 112.21%. Further, in the assay with MDA-MB-468, the Activity is 99.1%.
On to `O=S(=O)(Oc1ccc(-c2cnc3ccccc3n2)cc1)c1ccccc1`, for which the Activity was 106.54% in the assay with M14; 107.81% in the assay with NCI-H322M; 85.09% in the assay on SR; 101.99% in the assay on OVCAR-5; 130.45% in the assay with IGROV-1; 94.23% with HL-60(TB). The Activity with RXF 393 came to 102.24%; in the assay with UO-31, 94.43%; with SK-OV-3, 106.76%; in the assay on LOX IMVI, 95.98%; in the assay with HCT-15, 98.25%; in the assay on HOP-62, 106.15%. Moreover, the Activity in the assay with OVCAR-4 turned out to be 96.73%; with SK-MEL-28 it was 110.13%; in assay [1] it was 96.02%; in the assay on SF-268 it was 98.77%; in the assay on EKVX, 93.17%; in the assay on OVCAR-3 it was 112.06%. The Activity in the assay with MDA-MB-468 is on record as 84.46%.
`Cc1ccc(S(=O)(=O)NC2=NC(=O)/C(=C\c3ccccc3)S2)cc1`: the Activity turned out to be 110.84% with M14; 114.86% in the assay on NCI-H322M; 95.9% in the assay with SR; 111.88% with OVCAR-5; 124.8% with IGROV-1; 92.36% in the assay with HL-60(TB). Moreover, the Activity with RXF 393 was determined as 118.7%; with UO-31 it was 90.79%; in the assay with SK-OV-3, 107.71%; with LOX IMVI, 99.09%; in the assay on HCT-15, 104.84%; with HOP-62, 100.56%. Besides, the Activity with OVCAR-4 was determined as 96.34%; in the assay with SK-MEL-28, 114.12%; in [1], 108.06%; in the assay on SF-268, 99.46%; in the assay with EKVX, 99.77%; in the assay with OVCAR-3, 116.48%. Besides, the Activity in the assay on MDA-MB-468 is reported as 110.23%.
On to `Clc1ccc(-c2nc(-c3cccs3)no2)cc1`, for which the Activity in the assay on M14 came to 105.16%; in the assay on NCI-H322M, 113.5%; in the assay on SR, 85.71%; in the assay with OVCAR-5, 108.26%; in the assay on HL-60(TB), 98.45%; with RXF 393 it was 112.7%. Besides, the Activity in the assay with UO-31 is 74.13%; in the assay with SK-OV-3 it was 106.04%; in the assay on LOX IMVI, 93.13%; in the assay on HCT-15, 47.45%; in the assay with HOP-62, 97.84%; in the assay with OVCAR-4 it was 65.77%. Further, the Activity in the assay with SK-MEL-28 is 115.07%; in [1], 106.94%; in the assay with SF-268, 105.52%; in the assay with EKVX it was 85.36%; in the assay with OVCAR-3, 103.69%; in the assay with MDA-MB-468, 3.37%.
For the compound `O=C(Nc1nc2ccc(Cl)cc2s1)c1ccc(Cl)cc1`, the Activity in the assay on M14 is 106.22%; in the assay with NCI-H322M it was 111.02%; in the assay on SR it was 94.31%; with OVCAR-5, 115.32%; with IGROV-1 it was 119.2%; in the assay with HL-60(TB), 100.76%. Moreover, the Activity in the assay with RXF 393 came out at 111.55%; with UO-31, 97.6%; in the assay on SK-OV-3 it was 89.31%; with LOX IMVI, 98.77%; in the assay on HCT-15, 98.99%; in the assay with HOP-62 it was 103.16%. The Activity in the assay with OVCAR-4 is listed as 100.6%; in the assay with SK-MEL-28 it was 109.14%; in assay [1] it was 100.28%; in the assay with SF-268, 112.46%; in the assay with EKVX, 94%; in the assay with OVCAR-3, 112.95%. In addition, in the assay on MDA-MB-468, the Activity amounted to 114.39%.
As to `O=C(NCc1ccc(Cl)cc1)c1[nH]c2ccccc2c1Cl`, the Activity with M14 is 117.92%; with NCI-H322M, 113.2%; with OVCAR-5 it was 116.56%; in the assay on IGROV-1, 106.79%; in the assay on HL-60(TB) it was 109.59%; in the assay with RXF 393 it was 104.01%. Moreover, the Activity with UO-31 is 80.6%; with SK-OV-3, 98.27%; with LOX IMVI, 95.45%; with HCT-15 it was 103.64%; in the assay on HOP-62 it was 101.61%; in the assay on OVCAR-4, 100.82%. Besides, the Activity amounted to 109.03% with SK-MEL-28; 95.94% in assay [1]; 105.1% with SF-268; 83.18% in the assay on EKVX; 97.31% in the assay on OVCAR-3; 106.81% in the assay with MDA-MB-468.
As to `Cc1ccc(C2=N/C(=C\c3ccccc3)C(=O)O2)cc1`, the Activity in the assay on M14 was determined as 108.05%; in the assay with NCI-H322M, 114.1%; with SR it was 88.58%; with OVCAR-5, 95.31%; in the assay on HL-60(TB), 95.82%; with RXF 393 it was 130.71%. For the same compound, the Activity in the assay with UO-31 came out at 102.89%; in the assay on SK-OV-3, 109.52%; in the assay with LOX IMVI it was 105.76%; in the assay with HCT-15 it was 100.23%; in the assay on HOP-62 it was 108.81%; with OVCAR-4, 108.84%. In addition, the Activity in the assay on SK-MEL-28 is recorded as 105.81%; in assay [1] it was 107.34%; with SF-268, 98.83%; in the assay on EKVX it was 90.26%; in the assay with OVCAR-3, 105.55%; with MDA-MB-468, 99.59%.
As for `CC1(C)CC(=O)c2cc3c(N)c(C(=O)Nc4ccc(F)cc4)sc3nc2C1`, the Activity in the assay with M14 is on record as 121.48%; with NCI-H322M it was 110.83%; in the assay with SR it was 111.31%; with OVCAR-5, 92.85%; in the assay with IGROV-1 it was 119.45%; in the assay on HL-60(TB) it was 115.83%. In addition, the Activity in the assay with RXF 393 is 108.89%; with UO-31, 119.15%; in the assay with SK-OV-3, 109.93%; with LOX IMVI it was 102.36%; in the assay on HCT-15 it was 100.72%; with HOP-62 it was 114.29%. Also, the Activity in the assay with SK-MEL-28 was 113.65%; in assay [1], 104.25%; with SF-268, 124.1%; in the assay on EKVX, 100.32%; with OVCAR-3, 117.81%; with MDA-MB-468 it was 112.64%.
With `Nc1c(C(=O)Nc2ccccc2)sc2nc3c(cc12)C(=O)CCC3`, the Activity came to 1.11% in the assay on M14; 67.12% with NCI-H322M; 21.95% with SR; 59.92% with OVCAR-5; 36.43% in the assay with IGROV-1; 19.38% with HL-60(TB). The Activity in the assay on RXF 393 is -9.9%; in the assay with UO-31 it was 71.08%; with SK-OV-3, 19.71%; in the assay on LOX IMVI it was 51.19%; in the assay with HCT-15, 27.18%; with HOP-62 it was 39.88%. Besides, the Activity in the assay on SK-MEL-28 is on record as 58.69%; in assay [1] it was -6.39%; in the assay with SF-268 it was 53.38%; in the assay with EKVX, 84.59%; with OVCAR-3, -19.35%; in the assay with MDA-MB-468 it was 4.62%.
